Values of other authors, collected in Sander's compilation of Henry's law constants (doi:10.1021/ci0256485).

Assay: Henry solubility constant Hcp at 298.15 K (mol/(m3 Pa))
Conditions: reference: Delgado and Alderete (2003); cited value

Compound | Henry solubility constant Hcp
CCNc1nc(NC(C)C)nc(SC)n1 [ametryn] | 4100
Cc1nnc(-c2ccccc2)c(=O)n1N [metamitron] | 2.2e+06
